In PubChem BioAssay (NCI) one finds GI50 and TGI data, which are given here for six compounds.

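All cell lines were grown in 96-well plates and treated with compound for 48 hours. At the GI50, growth is halved. Definition used: TGI = concentration required for complete inhibition of growth.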

Among the test systems are NCI/ADR-RES ovarian; IGROV1 ovarian; A549 NSCLC; SN12C renal; CCRF-CEM leukemia; LOX IMVI melanoma; 786-0 renal; NCI-H460 lung; COLO 205 colon; M14 melanoma.
Common to all, as to assay: DTP human tumour cell line panel, 48 h

For the compound `O=C(Nc1n[nH]c2nc(-c3ccco3)ccc12)C1CC1`, the GI50 with NCI/ADR-RES ovarian, with IGROV1 ovarian, in the assay with A549 NSCLC, in the assay on SN12C renal, with CCRF-CEM leukemia and in the assay on LOX IMVI melanoma was above 25 µM each time. Moreover, the GI50 in the assay with 786-0 renal, in the assay on NCI-H460 lung, in the assay with COLO 205 colon and with M14 melanoma was above 25 µM each time. Further, the TGI with NCI/ADR-RES ovarian, in the assay on IGROV1 ovarian, in the assay on A549 NSCLC, in the assay on SN12C renal, with CCRF-CEM leukemia and in the assay with LOX IMVI melanoma was above 25 µM in each case. In addition, the TGI with 786-0 renal, with NCI-H460 lung, in the assay with COLO 205 colon and in the assay on M14 melanoma was above 25 µM in each case.
With `Cc1n[nH]c(=S)n1/N=C/c1ccc(F)c(Oc2ccccc2)c1`, the GI50 in the assay with NCI/ADR-RES ovarian was 33.2 µM; with IGROV1 ovarian, 62.3 µM; in the assay on A549 NSCLC, 42.2 µM; in the assay on SN12C renal, 95.6 µM; in the assay with CCRF-CEM leukemia, 40.5 µM; with LOX IMVI melanoma it was 51.1 µM. The GI50 is 42.3 µM with 786-0 renal, 39 µM with NCI-H460 lung, 68.1 µM in the assay on COLO 205 colon and 36.9 µM with M14 melanoma. Moreover, the concentration for total growth inhibition (TGI) in the assay on NCI/ADR-RES ovarian, with IGROV1 ovarian, in the assay on A549 NSCLC, with SN12C renal, in the assay on CCRF-CEM leukemia and in the assay with LOX IMVI melanoma was above 100 µM in each case. Also, the TGI in the assay with 786-0 renal, in the assay on NCI-H460 lung, in the assay with COLO 205 colon and with M14 melanoma was above 100 µM in each case.
As to `CCCc1cc2cc(-n3nc(C)c4c3CC(C)(C)CC4=O)cc(NC3CCC(O)CC3)c2c(=O)[nH]1` (centres undefined), the GI50 is 0.986 µM with NCI/ADR-RES ovarian; 0.134 µM with IGROV1 ovarian; 0.215 µM in the assay with A549 NSCLC; 0.0683 µM in the assay on SN12C renal; 0.278 µM with CCRF-CEM leukemia; 0.116 µM in the assay with LOX IMVI melanoma. For the same compound, the GI50 with 786-0 renal is 0.874 µM; in the assay with NCI-H460 lung, 0.0744 µM; in the assay with COLO 205 colon, 0.0775 µM; in the assay on M14 melanoma, 0.0944 µM. Moreover, the TGI in the assay on NCI/ADR-RES ovarian was above 100 µM; in the assay on IGROV1 ovarian it was above 100 µM; in the assay on A549 NSCLC, above 100 µM; in the assay with SN12C renal it was above 100 µM; in the assay on CCRF-CEM leukemia, above 100 µM; in the assay on LOX IMVI melanoma it was 1.07 µM. Also, the TGI was above 100 µM in the assay with 786-0 renal, above 100 µM with NCI-H460 lung, 1.22 µM in the assay on COLO 205 colon and above 100 µM in the assay on M14 melanoma.
`COc1ccc(-c2cc(=O)c3c(OC)c(OC)c(OC)c(OC)c3o2)cc1OC`: the total growth inhibition concentration (TGI) in the assay on NCI/ADR-RES ovarian was 97.1 µM; with IGROV1 ovarian, above 100 µM; in the assay with A549 NSCLC it was above 100 µM; with SN12C renal, above 100 µM; in the assay with CCRF-CEM leukemia, above 100 µM; in the assay on LOX IMVI melanoma, above 100 µM. The TGI with 786-0 renal, with NCI-H460 lung, with COLO 205 colon and in the assay on M14 melanoma was above 100 µM each time.
On to `CCOC(=O)c1ccc(N(CCOS(C)(=O)=O)CCOS(C)(=O)=O)cc1C`, for which the GI50 with NCI/ADR-RES ovarian is 23.7 µM; with IGROV1 ovarian, 91.4 µM; in the assay with A549 NSCLC it was 44.5 µM; with SN12C renal, 24.7 µM; with CCRF-CEM leukemia, 10 µM; in the assay on LOX IMVI melanoma, 29.1 µM. Further, the GI50 with 786-0 renal was 16.7 µM; in the assay on NCI-H460 lung it was 27.8 µM; in the assay with COLO 205 colon, 38.4 µM; in the assay with M14 melanoma it was 40.5 µM. Moreover, the concentration for total growth inhibition (TGI) in the assay on NCI/ADR-RES ovarian was 66.9 µM; in the assay on IGROV1 ovarian, above 100 µM; with A549 NSCLC, above 100 µM; with SN12C renal, above 100 µM; in the assay with CCRF-CEM leukemia, above 100 µM; with LOX IMVI melanoma, above 100 µM. The concentration for total growth inhibition (TGI) in the assay on 786-0 renal is 42.2 µM; in the assay on NCI-H460 lung, above 100 µM; with COLO 205 colon it was above 100 µM; in the assay with M14 melanoma, above 100 µM.
For `COc1cc(/C=C2\CN(C)C/C(=C\c3cc(OC)c(OC)c(OC)c3)C2=O)cc(OC)c1OC`, the 50% growth inhibitory concentration (GI50) in the assay on NCI/ADR-RES ovarian was 0.349 µM; in the assay with IGROV1 ovarian, 0.413 µM; in the assay on A549 NSCLC it was 0.37 µM; in the assay with SN12C renal it was 0.267 µM; with CCRF-CEM leukemia it was 0.271 µM; with LOX IMVI melanoma it was 0.141 µM. In addition, the GI50 was 0.27 µM with 786-0 renal, 0.252 µM with NCI-H460 lung, 0.23 µM in the assay on COLO 205 colon and 0.306 µM in the assay with M14 melanoma. Also, the TGI with NCI/ADR-RES ovarian is above 100 µM; with IGROV1 ovarian, 1.73 µM; in the assay with A549 NSCLC, 1.59 µM; in the assay on SN12C renal it was 0.833 µM; in the assay with CCRF-CEM leukemia, 1.13 µM; in the assay on LOX IMVI melanoma, 0.37 µM. In addition, the values for the TGI in the assay on NCI-H460 lung, in the assay on COLO 205 colon and in the assay with M14 melanoma were 0.654 µM, 0.461 µM and 1.57 µM, respectively.

The term GI50 denotes the concentration giving 50% growth inhibition. Usually TGI stands for the concentration at which net growth stops. A high value points to lower sensitivity of the cells.
